# Source: patent US6482850B2, “Hydrolysis-promoting hydrophobic taxane derivatives” (priority 1995, dated 2002)
# Tests used:
# CDF1 female mice = test: Acute toxicity of liposomal paclitaxel or paclitaxel derivative given intraperitoneally; conditions: i.p.; for number of mice that died within the first 14 days post-injection/total: liposomes
# Method: Moreover, liposomes containing either paclitaxel or a 2′-(2-bromo) hydrophobic paclitaxel derivative (containing either a six-carbon (C-6), C-8, C-12, C-14 or C-16 acyl chain at the 2′ position) were administered, intraperitoneally in 5 doses, to SCID (severe combined inimunodeficiency) mice bearing a human ovarian cancer (OvCar 3), at a dose of 12.5 mg paclitaxel per kg or a dose of 50 mg paclitaxel derivative per kg.
# CDF1 female mice, 5 or 10 mice per group, were intraperitoneally administered either paclitaxel-, 2′-C6-paclitaxel derivative-, or 2′-C16-paclitaxel derivative-containing liposomes, in a single dose, or 5 doses, of either 12.5, 25, 50, 100, 200, 300. 400 or 500 mg of paclitaxel or paclitaxel derivative per kg of mouse body weight.
# CDF1 mice = test: In vivo toxicity, i.v. x 5, non-tumor bearing mice; conditions: 30 days observation
# Method: A separate group (n=5) was injected with concentrations of Cremophor® EL and ethanol (in PBS) equivalent to the highest concentration of the test treatment. Mortality was recorded daily and body weights taken at least twice weekly for an observation period of 30 days.
smiles,measurement,setting,value
"CCCCCCCCCCCCCC[C@@H](Br)C(=O)O[C@@H](C(=O)O[C@H]1C[C@@]2(O)[C@@H](OC(=O)c3ccccc3)[C@@H]3[C@]4(OC(C)=O)CO[C@@H]4C[C@H](O)[C@@]3(C)C(=O)[C@H](OC(C)=O)C(=C1C)C2(C)C)[C@@H](NC(=O)c1ccccc1)c1ccccc1 [BrC16HT, 2′-(R)-[2-bromohexadecanoyl] paclitaxel]",relative acute toxicity of the liposomes,CDF1 female mice; CDF1 mice,less toxic than were the 2-bromo-C6 paclitaxel derivative-containing liposomes
same,number of mice that died within the first 14 days post-injection/total,CDF1 female mice; single dose 300 mg/kg,1/5
same,number of mice that died within the first 14 days post-injection/total,CDF1 female mice; single dose 400 mg/kg,1/5
same,number of mice that died within the first 14 days post-injection/total,CDF1 female mice; single dose 500 mg/kg,0/5
same,Number of Mice surviving/Total,"CDF1 mice; i.v. days 1 through 5, 12.5 mg/kg",10/10
same,Number of Mice surviving/Total,"CDF1 mice; i.v. days 1 through 5, 25 mg/kg",9/10
same,Number of Mice surviving/Total,"CDF1 mice; i.v. days 1 through 5, 37.5 mg/kg",0/10
same,Number of Mice surviving/Total,"CDF1 mice; i.v. days 1 through 5, 50 mg/kg",0/10
